Experiment [1] concerns Human platelet aggregation caused by ADP. As to the kind of experiment: Inhibition of ADP-induced platelet aggregation (Mimic-human PRP). Type of experiment: cell-based. The settings on record: 20 μM ADP, human platelet concentrate diluted with PPP, absorption at 595 nm. In outline: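 Ki came from non-linear sigmoidal fits of inhibition, measured as the 3-min rise in absorbance at 595 nm after 20 μM ADP, relative to 0/20 μM ADP controls. Platelets (3–4×10^8/mL in PPP-diluted human PRP) were exposed to 0.01–30 μM compound for 20 min at room temperature beforehand.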

For another experiment, the target named is T1, Human P2Y12 receptor (Homo sapiens, UniProt Q9H244).
T1 construct: expressed in transfected cells; host or cells: HEK cells
T1 sequence (Q9H244 whole entry): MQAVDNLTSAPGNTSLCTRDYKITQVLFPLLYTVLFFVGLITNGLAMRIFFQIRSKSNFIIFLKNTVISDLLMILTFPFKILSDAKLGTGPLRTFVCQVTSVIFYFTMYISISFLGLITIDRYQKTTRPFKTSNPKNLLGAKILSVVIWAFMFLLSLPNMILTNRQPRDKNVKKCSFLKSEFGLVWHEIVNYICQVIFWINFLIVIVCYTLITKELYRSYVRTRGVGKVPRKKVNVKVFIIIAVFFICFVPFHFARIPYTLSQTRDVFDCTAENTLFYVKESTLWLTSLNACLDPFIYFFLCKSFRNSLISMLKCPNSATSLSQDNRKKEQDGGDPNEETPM
Description: Human P2Y12 receptor cell membrane binding assay with [3H] 2-Mes-ADP. The settings on record: 1 nM [3H] 2-Mes-ADP, membranes of HEK cells expressing P2Y12 receptor; read-out: Binding activity (IC50). In outline:
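Competition binding used 1 nM [3H]2-MeS-ADP on P2Y12-expressing HEK cell membranes for 1 h at room temperature, followed by filtration and scintillation counting.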

Some results are limits rather than exact numbers.

The Ki is a measure of affinity in units of concentration, obtained from inhibition or displacement. A high value points to weaker binding. By IC50 is commonly meant the concentration that inhibits the measured activity by half.

In experiment [1], `CCCc1cc2c(N3CCn4c(nnc4C(F)(F)F)C3)nc(N3CC[C@H](N)C3)nc2s1` [Example 1-14, (S)-1-[6-Propyl-4-(3-trifluoromethyl-5,6-dihydro-8H-[1,2,4]triazolo[4,3-a]pyrazin-7-yl)-thieno[2,3-d]pyrimidin-2-yl]-pyrrolidin-3-ylamine] had a Ki of 34 nM. The IC50 on Human P2Y12 receptor is 60 nM.
The like results for `CCCc1cc2c(N3CCn4c(nnc4C(F)(F)F)C3)nc(N3CCOCC3)nc2s1` [Example 1-15, 7-(2-Morpholin-4-yl-6-propyl-thieno[2,3-d]pyrimidin-4-yl)-3-trifluoromethyl-5,6,7,8-tetrahydro-[1,2,4]triazolo[4,3-a]pyrazine] were, in that order, 95 nM and 62 nM.
For `CCCc1cc2c(N3CCn4c(nnc4C(F)(F)F)C3)nc(N3CC[C@H](O)C3)nc2s1` [Example 1-16, (S)-1-[6-Propyl-4-(3-trifluoromethyl-5,6-dihydro-8H-[1,2,4]triazolo[4,3-a]pyrazin-7-yl)-thieno[2,3-d]pyrimidin-2-yl]-pyrrolidin-3-ol], affinity in experiment [1] was put at a Ki of 45 nM. Also, the IC50 at Human P2Y12 receptor is 36 nM.
Taken in the same sequence, the figures for `CCCc1cc2c(N3CCn4c(nnc4C(F)(F)F)C3)nc(N3CC[C@@H](O)C3)nc2s1` [Example 1-17, (R)-1-[6-Propyl-4-(3-trifluoromethyl-5,6-dihydro-8H-[1,2,4]triazolo[4,3-a]pyrazin-7-yl)-thieno[2,3-d]pyrimidin-2-yl]-pyrrolidin-3-ol] were 80 nM and 41 nM.
`CCCc1cc2c(N3CCn4c(nnc4C(F)(F)F)C3)nc(N3CCC(=O)C3)nc2s1` [Example 1-18, 1-[6-Propyl-4-(3-trifluoromethyl-5,6-dihydro-8H-[1,2,4]triazolo[4,3-a]pyrazin-7-yl)-thieno[2,3-d]pyrimidin-2-yl]-pyrrolidin-3-one]: the inhibitory constant (Ki) in experiment [1] came out at 34 nM. Further, the half-maximal inhibitory concentration (IC50) at Human P2Y12 receptor turned out to be 54 nM.
Taken in the same sequence, the figures for `CCCc1cc2c(N3CCn4c(nnc4C(F)(F)F)C3)nc(N3CCC(=NO)C3)nc2s1` [Example 1-19, 1-[6-Propyl-4-(3-trifluoromethyl-5,6-dihydro-8H-[1,2,4]triazolo[4,3-a]pyrazin-7-yl)-thieno[2,3-d]pyrimidin-2-yl]-pyrrolidin-3-one oxime] were 56 nM and 55 nM.
Taken in the same sequence, the figures for `CCCc1cc2c(N3CCn4c(nnc4C(F)(F)F)C3)nc(N3CCC(=NOC)C3)nc2s1` [Example 1-20, 1-[6-Propyl-4-(3-trifluoromethyl-5,6-dihydro-8H-[1,2,4]triazolo[4,3-a]pyrazin-7-yl)-thieno[2,3-d]pyrimidin-2-yl]-pyrrolidin-3-one O-methyloxime] were 190 nM and 163 nM.
The like results for `CCCc1cc2c(N3CCn4c(nnc4C(F)(F)F)C3)nc(N3CCC(=NOCc4ccccc4)C3)nc2s1` [Example 1-21, 1-[6-Propyl-4-(3-trifluoromethyl-5,6-dihydro-8H-[1,2,4]triazolo[4,3-a]pyrazin-7-yl)-thieno[2,3-d]pyrimidin-2-yl]-pyrrolidin-3-one O-benzyloxime] were, in that order, 220 nM and 452 nM.
On to `CCCc1cc2c(N3CCn4c(nnc4C(F)(F)F)C3)nc(N3CC[C@H](OC(C)=O)C3)nc2s1` [Example 1-22, Acetic Acid (S)-1-[6-propyl-4-(3-trifluoromethyl-5,6-dihydro-8H-[1,2,4]triazolo[4,3-a]pyrazin-7-yl)-thieno[2,3-d]pyrimidin-2-yl]-pyrrolidin-3-yl ester], for which the inhibition constant (Ki) in experiment [1] worked out at 130 nM. Besides, the half-inhibitory concentration (IC50) at Human P2Y12 receptor is 65 nM.
The like results for `CCCc1cc2c(N3CCn4c(nnc4C(F)(F)F)C3)nc(N3CC[C@@H](OC(C)=O)C3)nc2s1` [Example 1-23, Acetic Acid (R)-1-[6-propyl-4-(3-trifluoromethyl-5,6-dihydro-8H-[1,2,4]triazolo[4,3-a]pyrazin-7-yl)-thieno[2,3-d]pyrimidin-2-yl]-pyrrolidin-3-yl ester] were, in that order, 94 nM and 90 nM.
In the case of `CCCc1cc2c(N3CCn4c(nnc4C(F)(F)F)C3)nc(N3CCC(OC)C3)nc2s1` (stereo not drawn) [Example 1-24, 7-[2-(3-Methoxy-pyrrolidin-1-yl)-6-propyl-thieno[2,3-d]pyrimidin-4-yl]-3-trifluoromethyl-5,6,7,8-tetrahydro-[1,2,4]triazolo[4,3-a]pyrazine], the inhibition constant Ki in experiment [1] is 88 nM. Also, the half-inhibitory concentration (IC50) on Human P2Y12 receptor was determined as 54 nM.
Taken in the same sequence, the figures for `CCCc1cc2c(N3CCn4c(nnc4C(F)(F)F)C3)nc(N3CCN(C)C(=O)C3)nc2s1` [Example 1-25, 1-Methyl-4-[6-propyl-4-(3-trifluoromethyl-5,6-dihydro-8H-[1,2,4]triazolo[4,3-a]pyrazin-7-yl)-thieno[2,3-d]pyrimidin-2-yl]-piperazin-2-one] were 100 nM and 32 nM.
The like results for `CCCc1cc2c(N3CCn4c(nnc4C(F)(F)F)C3)nc(N3CCC(O)CC3)nc2s1` [Example 1-26, 1-[6-Propyl-4-(3-trifluoromethyl-5,6-dihydro-8H-[1,2,4]triazolo[4,3-a]pyrazin-7-yl)-thieno[2,3-d]pyrimidin-2-yl]-piperidin-4-ol] were, in that order, 1200 nM and 60 nM.
The like results for `CCCc1cc2c(N3CCn4c(nnc4C(F)(F)F)C3)nc(N3CCCC(O)C3)nc2s1` (stereo not drawn) [Example 1-27, 1-[6-Propyl-4-(3-trifluoromethyl-5,6-dihydro-8H-[1,2,4]triazolo[4,3-a]pyrazin-7-yl)-thieno[2,3-d]pyrimidin-2-yl]-piperidin-3-ol] were, in that order, 72 nM and 56 nM.
`CCCc1cc2c(N3CCn4c(nnc4C(F)(F)F)C3)nc(N3CCCCC3CO)nc2s1` (stereo not drawn) [Example 1-28, {1-[6-Propyl-4-(3-trifluoromethyl-5,6-dihydro-8H-[1,2,4]triazolo[4,3-a]pyrazin-7-yl)-thieno[2,3-d]pyrimidin-2-yl]-piperidin-2-yl}-methanol] came in with a Ki in experiment [1] of 176 nM. For the same compound, the concentration for half-maximal inhibition (IC50) on Human P2Y12 receptor worked out at 40 nM.
The like results for `CCCc1cc2c(N3CCn4c(nnc4C(F)(F)F)C3)nc(N3CCCC(CO)C3)nc2s1` (stereo not drawn) [Example 1-29, {1-[6-Propyl-4-(3-trifluoromethyl-5,6-dihydro-8H-[1,2,4]triazolo[4,3-a]pyrazin-7-yl)-thieno[2,3-d]pyrimidin-2-yl]-piperidin-3-yl}-methanol] were, in that order, 60 nM and 50 nM.
`CCCc1cc2c(N3CCn4c(nnc4C(F)(F)F)C3)nc(N3CCCC3CO)nc2s1` (stereo not drawn) [Example 1-30, {1-[6-Propyl-4-(3-trifluoromethyl-5,6-dihydro-8H-[1,2,4]triazolo[4,3-a]pyrazin-7-yl)-thieno[2,3-d]pyrimidin-2-yl]-pyrrolidin-2-yl}-methanol] showed a Ki in experiment [1] of 90 nM. Besides, the IC50 on Human P2Y12 receptor worked out at 66 nM.
On to `CCCc1cc2c(N3CCn4c(nnc4C(F)(F)F)C3)nc(NC3CCCC3)nc2s1` [Example 1-31, Cyclopentyl-[6-propyl-4-(3-trifluoromethyl-5,6-dihydro-8H-[1,2,4]triazolo[4,3-a]pyrazin-7-yl)-thieno[2,3-d]pyrimidin-2-yl]-amine], for which, in experiment [1], the Ki was 7600 nM. The half-inhibitory concentration (IC50) on Human P2Y12 receptor was 110 nM.
Taken in the same sequence, the figures for `CCCc1cc2c(N3CCn4c(nnc4C(F)(F)F)C3)nc(NCc3ccccc3)nc2s1` [Example 1-32, Benzyl-[6-propyl-4-(3-trifluoromethyl-5,6-dihydro-8H-[1,2,4]triazolo[4,3-a]pyrazin-7-yl)-thieno[2,3-d]pyrimidin-2-yl]-amine] were > 4000 nM and 95 nM.
The compound `CCCc1cc2c(N3CCn4c(nnc4C(F)(F)F)C3)nc(N[C@@H]3C[C@H](OCCO)[C@@H](O)[C@H]3O)nc2s1` [Example 1-33, (1S,2S,3S,5R)-3-(2-Hydroxy-ethoxy)-5-[6-propyl-4-(3-trifluoromethyl-5,6-dihydro-8H-[1,2,4]triazolo[4,3-a]pyrazin-7-yl)-thieno[2,3-d]pyrimidin-2-ylamino]-cyclopentane-1,2-diol] came in with a Ki in experiment [1] of 250 nM. Besides, the 50% inhibitory concentration (IC50) on Human P2Y12 receptor is 780 nM.
Compound `CCCc1cc2c(N3CCn4c(nnc4C(F)(F)F)C3)nc(N(CCO)CCO)nc2s1` [Example 1-34, 2-{(2-Hydroxy-ethyl)-[6-propyl-4-(3-trifluoromethyl-5,6-dihydro-8H-[1,2,4]triazolo[4,3-a]pyrazin-7-yl)-thieno[2,3-d]pyrimidin-2-yl]-amino}-ethanol] returned a Ki in experiment [1] of 81 nM. Also, the IC50 at Human P2Y12 receptor was 143 nM.
On to `CCCc1cc2c(N3CCn4c(nnc4C(F)(F)F)C3)nc(N3CCOC(=O)C3)nc2s1` [Example 1-35, 4-[6-Propyl-4-(3-trifluoromethyl-5,6-dihydro-8H-[1,2,4]triazolo[4,3-a]pyrazin-7-yl)-thieno[2,3-d]pyrimidin-2-yl]-morpholin-2-one], for which, in experiment [1], affinity was put at a Ki of 54 nM. The half-inhibitory concentration (IC50) on Human P2Y12 receptor came out at 135 nM.
The compound `CCCc1cc2c(N3CCn4c(nnc4C(F)(F)F)C3)nc(Nc3ccccc3)nc2s1` [Example 1-36, Phenyl-[6-propyl-4-(3-trifluoromethyl-5,6-dihydro-8H-[1,2,4]triazolo[4,3-a]pyrazin-7-yl)-thieno[2,3-d]pyrimidin-2-yl]-amine] showed a Ki in experiment [1] of 1200 nM. For the same compound, the half-inhibitory concentration (IC50) at Human P2Y12 receptor is 170 nM.
For `CCCc1cc2c(N3CCn4c(nnc4C(F)(F)F)C3)nc(Nc3ncccn3)nc2s1` [Example 1-37, [6-Propyl-4-(3-trifluoromethyl-5,6-dihydro-8H-[1,2,4]triazolo[4,3-a]pyrazin-7-yl)-thieno[2,3-d]pyrimidin-2-yl]-pyrimidin-2-yl-amine], the Ki in experiment [1] was 850 nM. Also, the IC50 on Human P2Y12 receptor was determined as 550 nM.

Source of the values: patent US20110166121A1 (LG LIFE SCIENCES LTD., priority 2008, published 2011).
